According to patent US20250144067A1, “PERSONALIZED STARVATION THERAPY FOR CANCER” (Faeth Therapeutics, Inc., priority 2021, published 2025):
Counter-ions that a name gives are not always drawn.

Columns and labels:
[1] = test system: NCI-H292 lung cancer cells; assay: FDA drug screening, complete media vs cholesterol-free media without statin (TABLE 1); assay type: cell-based, human
[2] = test system: NCI-H292 lung cancer cells; assay: FDA drug screening, complete media vs cholesterol-free media with simvastatin (TABLE 2); assay type: cell-based, human; details: for Cholesterol-free media + simvastatin (0.04 μM) / Complete Media: NCI-H292 cells
[3] = NCI-H292 cells, cholesterol-free media without statin
[4] = complete vs cholesterol-free media, […]
[5] = FDA drug library screen, cholesterol-free media with simvastatin 0.04 μM
[6] = FDA drug library screen, complete media
[7] = complete media vs cholesterol-free media + simvastatin (0.04 μM), […]
[8] = complete vs cholesterol-free media, greater than 0 enhanced anti-cancer activity, about 0 neutral, below 0 antagonists
[9] = complete media minus cholesterol-free media + simvastatin, >0 enhanced anti-cancer activity, about 0 neutral, <0 antagonist
[10] = NCI-H292 cells, cholesterol-free media without statin, FDA drug library screen
[11] = NCI-H292 cells, complete media, FDA drug library screen
[12] = complete vs cholesterol-free media, >0 enhanced anti-cancer activity, about 0 neutral, <0 antagonist
[13] = Complete minus Cholesterol-free, >0 enhanced anti-cancer activity, about 0 neutral, <0 antagonist
[14] = cholesterol-free media with simvastatin 0.04 μM, FDA drug library screen (TABLE 2)
[15] = complete media, FDA drug library screen (TABLE 2)
[16] = complete media minus cholesterol-free media + simvastatin (0.04 μM), >0 enhanced anti-cancer activity, about 0 neutral, <0 antagonist
[17] = cholesterol-free media with simvastatin 0.04 μM, cell growth value in FDA drug screen
[18] = complete media, cell growth value in FDA drug screen
[19] = NCI-H292 cells in cholesterol-free media without statin
[20] = NCI-H292 cells in complete media

In the case of `CCC[C@H](NC(=O)[C@@H]1[C@H]2CCC[C@H]2CN1C(=O)[C@@H](NC(=O)[C@@H](NC(=O)c1cnccn1)C1CCCCC1)C(C)(C)C)C(=O)C(=O)NC1CC1` [Telaprevir], the Cholesterol-free [1, 3] is reported as 1.55, the Complete ([1]; NCI-H292 cells, complete media) is reported as 1.165 and the Difference [1, 4] is reported as −0.39. The “Cholesterol-free media + simvastatin (0.04 μM)” value [2, 5] was 1.084, the “Complete Media” value [2, 6] was 0.9529 and the Difference [2, 7] was −0.13.

For `OCc1cc(C(O)CNCCCCCCOCCCCc2ccccc2)ccc1O` (centres unmarked) [Salmeterol (xinafoate)], the Cholesterol-free [1, 3] was 1.696, the Complete ([1]; NCI-H292 cells, complete media) was 1.368 and the Difference [1, 8] was −0.33. For the same compound, the “Cholesterol-free media + simvastatin (0.04 μM)” value [2, 5] was 0.9341, the “Complete Media” value [2, 6] was 1.186 and the Difference [2, 9] was 0.25.

For `CCCCOc1ccc(OCCCN2CCOCC2)cc1` [Pramocaine (hydrochloride)], the Cholesterol-free [1, 3] was 1.301, the Complete ([1]; NCI-H292 cells, complete media) was 0.9298 and the Difference [1, 8] was −0.37. For the same compound, the “Cholesterol-free media + simvastatin (0.04 μM)” value [2, 5] was 0.6469, the “Complete Media” value [2, 6] was 1.047 and the Difference [2, 9] was 0.40.

With `CC(C)[C@H]1CC[C@H](C(=O)N[C@H](Cc2ccccc2)C(=O)O)CC1` [Nateglinide] the Cholesterol-free [1, 10] was 1.149, the Complete [1, 11] was 1.887 and the Difference [1, 12] was 0.74. For the same compound, the “Cholesterol-free media + simvastatin (0.04 μM)” value [2, 5] was 1.052, the “Complete Media” value [2, 6] was 1.823 and the Difference [2, 9] was 0.77.

Compound `CC(=O)O[C@H]1C(=O)[C@@]2(C)[C@H]([C@H](OC(=O)c3ccccc3)[C@]3(O)C[C@H](OC(=O)[C@H](O)[C@@H](NC(=O)c4ccccc4)c4ccccc4)C(C)=C1C3(C)C)[C@]1(OC(C)=O)CO[C@@H]1C[C@@H]2O` [Paclitaxel] has a Difference [1, 13] of −0.01, a Cholesterol-free [1, 10] of 0.0662 and a Complete [1, 11] of 0.05705. For the same compound, the “Cholesterol-free media + simvastatin (0.04 μM)” value [2, 14] was 0.2107, the “Complete Media” value [2, 15] was 0.1648 and the Difference [2, 16] was −0.05.

For `NCCc1c[nH]cn1` [Histamine], the Difference [1, 13] was 0.05, the Cholesterol-free [1, 10] was 0.9318 and the Complete [1, 11] was 0.9813. The “Cholesterol-free media + simvastatin (0.04 μM)” value [2, 5] was 1.15, the “Complete Media” value [2, 6] was 1.573 and the Difference [2, 9] was 0.42.

`CC1=C(C)C(=O)C(C(CCCCCC(=O)O)c2ccccc2)=C(C)C1=O` (centres unmarked) [Seratrodast] was tested, and the Difference [1, 13] was 0.00, the Cholesterol-free [1, 10] was 0.9876 and the Complete [1, 11] was 0.9904. The “Cholesterol-free media + simvastatin (0.04 μM)” value [2, 5] was 0.9305, the “Complete Media” value [2, 6] was 1.335 and the Difference [2, 9] was 0.40.

`Fc1ccc(C(c2ccc(F)cc2)N2CCN(C/C=C/c3ccccc3)CC2)cc1` [Flunarizine (dihydrochloride)] was tested, and the Difference [1, 13] was 0.07, the Cholesterol-free [1, 10] was 0.971 and the Complete [1, 11] was 1.036. The “Cholesterol-free media + simvastatin (0.04 μM)” value [2, 17] was 0.8172, the “Complete Media” value [2, 18] was 0.8617 and the Difference [2, 9] was 0.04.

Work on Oritavancin (diphosphate) yielded a Difference ([1]; Complete minus Cholesterol-free, […]) of −0.64, a Cholesterol-free [1, 19] of 1.626 and a Complete [1, 20] of 0.9877. The “Cholesterol-free media + simvastatin (0.04 μM)” value ([2]; drug in cholesterol-free media with simvastatin 0.04 μM) was 1.021, the “Complete Media” value ([2]; drug in complete media) was 0.8102 and the Difference [2, 7] was −0.21.

With Methylergometrine (maleate) the Cholesterol-free [1, 3] was 1.022, the Difference [1, 4] was −0.31 and the “Cholesterol-free media + simvastatin (0.04 μM)” value [2, 5] was 1.017. For the same compound, the “Complete Media” value [2, 6] was 0.9007 and the Difference [2, 7] was −0.12.

`CCOC(=O)[C@@H](N)Cc1ccc(-c2cc(O[C@H](c3ccc(Cl)cc3-n3ccc(C)n3)C(F)(F)F)nc(N)n2)cc1` [Telotristat etiprate] showed a Difference ([1]; Complete minus Cholesterol-free, greater than 0 enhanced anti-cancer activity, about 0 neutral, below 0 antagonists) of −0.51, a Cholesterol-free [1, 19] of 1.323 and a Complete [1, 20] of 0.8145. For the same compound, the “Cholesterol-free media + simvastatin (0.04 μM)” value [2, 5] was 1.173, the “Complete Media” value [2, 6] was 1.074 and the Difference ([2]; complete media vs cholesterol-free media + simvastatin (0.04 μM), >0 enhanced anti-cancer activity, about 0 neutral, <0 antagonist) was −0.10.

For `C[N+](C)(C)CCO.[Cl-]` [Choline (chloride)], the Cholesterol-free [1, 10] was 0.7223, the Complete [1, 11] was 1.217 and the Difference [1, 12] was 0.49. For the same compound, the “Cholesterol-free media + simvastatin (0.04 μM)” value [2, 17] was 0.793, the “Complete Media” value [2, 18] was 0.8494 and the Difference [2, 9] was 0.06.

`CN(C)c1ccc(O)c2c1C[C@H]1C[C@H]3[C@H](N(C)C)C(O)=C(C(N)=O)C(=O)[C@@]3(O)C(O)=C1C2=O` [Minocycline (hydrochloride)] was tested, and the Cholesterol-free [1, 10] was 0.8959, the Complete [1, 11] was 1.177 and the Difference [1, 12] was 0.28. The “Cholesterol-free media + simvastatin (0.04 μM)” value [2, 5] was 1.589, the “Complete Media” value [2, 6] was 1.958 and the Difference [2, 9] was 0.37.

With `CN1C(CCl)Nc2cc(Cl)c(S(N)(=O)=O)cc2S1(=O)=O` (centres unmarked) [Methyclothiazide] the Difference [1, 13] was −0.24, the Cholesterol-free [1, 3] was 1.096 and the Complete ([1]; NCI-H292 cells, complete media) was 0.856. For the same compound, the “Cholesterol-free media + simvastatin (0.04 μM)” value [2, 14] was 1.147, the “Complete Media” value [2, 15] was 1.081 and the Difference [2, 16] was −0.07.
